This assay concerns the target T1, GLP-1R (Homo sapiens, UniProt P43220).
T1 construct: host or cells: CHO cells
Briefly: GLP-1R activation cAMP assay (Assay 1 or Assay 2). Type of assay: cell-based. To be noted: cAMP increase in CHO cells stably expressing GLP-1R; compounds run on one of the two cAMP assays. The procedure, abridged: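 CHO cells stably expressing human GLP-1R were incubated 1 h in HBSS/20 mM HEPES/0.1% BSA, then exposed to 10-point agonist dilutions for 30 min at 37 °C. cAMP increase was measured with an HTRF Gs dynamic kit; EC50 from sigmoidal fit of response versus log concentration.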

T1 sequence (P43220 24-463): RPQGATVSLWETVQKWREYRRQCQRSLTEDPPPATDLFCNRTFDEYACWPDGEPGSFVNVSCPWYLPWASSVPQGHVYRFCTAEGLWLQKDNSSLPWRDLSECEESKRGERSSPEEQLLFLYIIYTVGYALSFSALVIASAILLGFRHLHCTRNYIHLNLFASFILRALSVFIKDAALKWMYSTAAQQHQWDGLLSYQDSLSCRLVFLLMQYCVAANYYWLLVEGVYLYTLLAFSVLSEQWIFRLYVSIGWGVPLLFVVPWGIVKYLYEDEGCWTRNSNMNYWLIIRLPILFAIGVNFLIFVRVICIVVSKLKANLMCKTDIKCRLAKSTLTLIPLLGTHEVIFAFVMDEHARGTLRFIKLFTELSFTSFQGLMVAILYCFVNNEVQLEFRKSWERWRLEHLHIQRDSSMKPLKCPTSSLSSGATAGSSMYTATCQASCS

On to `Cn1cncc1C#Cc1ccc(COc2cccc(-c3cc(F)c(Cc4nc5ccc(C(=O)O)cc5n4C[C@@H]4CCO4)cc3F)n2)c(F)c1` [Example 142, (S)-2-(2,5-difluoro-4-(6-((2-fluoro-4-((1-methyl-1H-imidazol-5-yl)ethynyl)benzyl)oxy)pyridin-2-yl)benzyl)-1-(oxetan-2-ylmethyl)-1H-benzo[d]imidazole-6-carboxylic acid], for which it took 0.25 nM to reach a half-maximal effect (EC50). `Cn1cc(C#Cc2cnc(COc3cccc(-c4cc(F)c(Cc5nc6ccc(C(=O)O)cc6n5C[C@@H]5CCO5)cc4F)n3)c(F)c2)cn1` [Example 143, (S)-2-(2,5-difluoro-4-(6-((3-fluoro-5-((1-methyl-1H-pyrazol-4-yl)ethynyl)pyridin-2-yl)methoxy)pyridin-2-yl)benzyl)-1-(oxetan-2-ylmethyl)-1H-benzo[d]imidazole-6-carboxylic acid]: the midpoint of the response, the EC50, lay at 0.14 nM.

As to `Cn1cc(C#Cc2cc(F)c(COc3cccc(-c4cc(F)c(Cc5nc6ccc(C(=O)O)cc6n5C[C@@H]5CCO5)cc4F)n3)cn2)cn1` [Example 144, (S)-2-(2,5-difluoro-4-(6-((4-fluoro-6-((1-methyl-1H-pyrazol-4-yl)ethynyl)pyridin-3-yl)methoxy)pyridin-2-yl)benzyl)-1-(oxetan-2-ylmethyl)-1H-benzo[d]imidazole-6-carboxylic acid], the EC50 was 0.99 nM. For the compound `COc1cc(C#Cc2cnn(C)c2)ncc1COc1cccc(-c2cc(F)c(Cc3nc4ccc(C(=O)O)cc4n3C[C@@H]3CCO3)cc2F)n1` [Example 145, (S)-2-(2,5-difluoro-4-(6-((4-methoxy-6-((1-methyl-1H-pyrazol-4-yl)ethynyl)pyridin-3-yl)methoxy)pyridin-2-yl)benzyl)-1-(oxetan-2-ylmethyl)-1H-benzo[d]imidazole-6-carboxylic acid], a half-maximal response (EC50) required 0.25 nM. Under `Cc1ncc(C#Cc2ccc(COc3cccc(-c4cc(F)c(Cc5nc6ccc(C(=O)O)cc6n5C[C@@H]5CCO5)cc4F)n3)c(F)c2)cn1` [Example 146, (S)-2-(2,5-difluoro-4-(6-((2-fluoro-4-((2-methylpyrimidin-5-yl)ethynyl)benzyl)oxy)pyridin-2-yl)benzyl)-1-(oxetan-2-ylmethyl)-1H-benzo[d]imidazole-6-carboxylic acid] stands 0.09 nM; under `Cn1cc(C#Cc2ccc(COc3cccc(-c4cc(F)c(Cc5nc6ccc(C(=O)O)cc6n5C[C@@H]5CCO5)cc4F)n3)cn2)cn1` [Example 147, (S)-2-(2,5-difluoro-4-(6-((6-((1-methyl-1H-pyrazol-4-yl)ethynyl)pyridin-3-yl)methoxy)pyridin-2-yl)benzyl)-1-(oxetan-2-ylmethyl)-1H-benzo[d]imidazole-6-carboxylic acid], 0.6 nM; under `Cn1ccnc1C#Cc1ccc(COc2cccc(-c3cc(F)c(Cc4nc5ccc(C(=O)O)cc5n4C[C@@H]4CCO4)cc3F)n2)c(F)c1` [Example 148, (S)-2-(2,5-difluoro-4-(6-((2-fluoro-4-((1-methyl-1H-imidazol-2-yl)ethynyl)benzyl)oxy)pyridin-2-yl)benzyl)-1-(oxetan-2-ylmethyl)-1H-benzo[d]imidazole-6-carboxylic acid], 0.51 nM.

In the case of `Cc1ncc(C#Cc2ccc(COc3cccc(-c4cc(F)c(Cc5nc6ccc(C(=O)O)cc6n5C[C@@H]5CCO5)cc4F)n3)c(F)c2)n1C` [Example 149, (S)-2-(4-(6-((4-((1,2-dimethyl-1H-imidazol-5-yl)ethynyl)-2-fluorobenzyl)oxy)pyridin-2-yl)-2,5-difluorobenzyl)-1-(oxetan-2-ylmethyl)-1H-benzo[d]imidazole-6-carboxylic acid], the midpoint of the response, the EC50, lay at 0.29 nM. Turning to `COCCn1c(Cc2ccc(-c3cccc(OCc4ccc(C#Cc5cnc(N6CC7CCC(C6)N7C6COC6)nc5)cc4F)n3)cc2F)nc2ccc(C(=O)O)cc21` [Example 150, 2-(2-fluoro-4-(6-((2-fluoro-4-((2-(8-(oxetan-3-yl)-3,8-diazabicyclo[3.2.1]octan-3-yl)pyrimidin-5-yl)ethynyl)benzyl)oxy)pyridin-2-yl)benzyl)-1-(2-methoxyethyl)-1H-benzo[d]imidazole-6-carboxylic acid], the EC50 came to 10 nM.

For orientation: EC50 means the midpoint of the concentration-response curve. High values mean a less potent agent, low ones a more potent agent.

Source of the values: patent US20250312352A1, “GLP-1R MODULATING COMPOUNDS” (Gilead Sciences, Inc., priority 2021, published 2025).
